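All cell lines were grown in 96-well plates and treated with compound for 48 hours. At the TGI there is no net growth.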
Assays:
Assay in all cases: inhibition of tumour cell growth, NCI panel, 48 h
EKVX NSCLC = system: EKVX NSCLC
HS 578T breast = system: HS 578T breast
ACHN renal = system: ACHN renal
MALME-3M melanoma = system: MALME-3M melanoma
COLO 205 colon = system: COLO 205 colon
SN12C renal = system: SN12C renal
HCC-2998 colon = system: HCC-2998 colon
SR leukemia = system: SR leukemia
HCT-15 colon = system: HCT-15 colon
UO-31 renal = system: UO-31 renal
NCI-H460 lung = system: NCI-H460 lung
T-47D breast = system: T-47D breast
BT-549 breast = system: BT-549 breast
SF-268 CNS = system: SF-268 CNS
HL-60(TB) leukemia = system: HL-60(TB) leukemia
HT29 colon = system: HT29 colon
CAKI-1 renal = system: CAKI-1 renal
RXF 393 renal = system: RXF 393 renal
M14 melanoma = system: M14 melanoma
OVCAR-8 ovarian = system: OVCAR-8 ovarian

| Structure (SMILES) | TGI (EKVX NSCLC) [µM] | TGI (HS 578T breast) [µM] | TGI (ACHN renal) [µM] | TGI (MALME-3M melanoma) [µM] | TGI (COLO 205 colon) [µM] | TGI (SN12C renal) [µM] | TGI (HCC-2998 colon) [µM] | TGI (SR leukemia) [µM] | TGI (HCT-15 colon) [µM] | TGI (UO-31 renal) [µM] | TGI (NCI-H460 lung) [µM] | TGI (T-47D breast) [µM] | TGI (BT-549 breast) [µM] | TGI (SF-268 CNS) [µM] | TGI (HL-60(TB) leukemia) [µM] | TGI (HT29 colon) [µM] | TGI (CAKI-1 renal) [µM] | TGI (RXF 393 renal) [µM] | TGI (M14 melanoma) [µM] | TGI (OVCAR-8 ovarian) [µM] |
| --- | --- | --- | --- | --- | --- | --- | --- | --- | --- | --- | --- | --- | --- | --- | --- | --- | --- | --- | --- | --- |
| O=C1CSC(c2ccccc2)N1c1ccc(-n2c(-c3ccccc3)nc3ccccc3c2=O)cc1 (centres undefined) | > 100 | > 100 | > 100 | > 100 | > 100 | > 100 | > 100 | > 100 | > 100 | > 100 | > 100 | > 100 | > 100 | > 100 | > 100 | > 100 | > 100 | > 100 | > 100 | > 100 |
| O=C(NCCCNCCN1C(=O)c2cccc3cc([N+](=O)[O-])cc(c23)C1=O)c1cc(-c2ccccc2)nc2ccccc12 | 22.8 | 12.5 | 14.5 | 3.24 | 4.26 | 17.1 | 3.05 | 2.1 | 17.2 | 7.46 | 12.6 | 23.7 | 20.2 | 15.9 | 5.76 | 2.84 | 18.9 | 3.34 | 3.3 | 17 |
| CC(=O)OCC1OC(c2c(OC(C)=O)cc(C)c3c(=O)cc(/C(C(C)=O)=C(\C)O)oc23)C(OC(C)=O)C(OC(C)=O)C1OC(C)=O (centres undefined) | > 100 | > 100 | > 100 | > 100 | > 100 | > 100 | > 100 | > 100 | > 100 | > 100 | > 100 | > 100 | > 100 | > 100 | > 100 | > 100 | > 100 | > 100 | > 100 | > 100 |
| Cn1c(=O)c2nc3c(=O)n(C)c(=O)n(CC(N)=O)c3nc2n(C)c1=O | > 100 | > 100 | > 100 | > 100 | > 100 | > 100 | > 100 | > 100 | > 100 | > 100 | > 100 | > 100 | > 100 | > 100 | > 100 | > 100 | > 100 | > 100 | > 100 | > 100 |
| N/N=C(\c1nc2ccc([N+](=O)[O-])cc2[nH]c1=O)C(O)c1ccc(Cl)c(Cl)c1 (centres undefined) | > 100 | > 100 | > 100 | > 100 | > 100 | > 100 | > 100 | > 100 | > 100 | > 100 | > 100 | > 100 | > 100 | > 100 | > 100 | > 100 | > 100 | > 100 | > 100 | > 100 |
| O/N=C(/CC(O)(C(F)(F)F)C(F)(F)F)c1ccccc1 | > 10 | > 10 | > 10 | > 10 | > 10 | > 10 | > 10 | > 10 | > 10 |  | > 10 | > 10 | > 10 | > 10 | > 10 | > 10 | > 10 | > 10 | > 10 | > 10 |
| Cc1cc2nc(C=C(C(F)(F)F)C(F)(F)F)sc2cc1C | 7.27 | 9.69 | 7.48 | 4.56 | 13.7 | 1.63 | 8.36 | 13.2 | 8.91 | 7.17 | 16 | 1.78 | 4.64 | 11.3 | 3.86 | 9.93 | 8.24 | 3.68 | 3.31 | 4.4 |
| CCOC(=O)CC1(Cc2ccc(OCc3ccccc3)cc2)C(=O)OC(c2ccccc2)N1C(=O)c1ccccc1 (centres undefined) | > 100 | > 100 | > 100 | > 100 | > 100 | > 100 | 84.7 | > 100 | > 100 | > 100 | 62.1 | > 100 | > 100 | > 100 | > 100 | > 100 | > 100 | > 100 | > 100 | > 100 |

— PubChem BioAssay (NCI)
